Patent publication US7714014B2, “Targeting GLI proteins in human cancer by small molecules” (The Regents of the University of California, priority 2005, dated 2010)
“Also recorded” adds a separate entry of the source.

Tests used:
[1] = test system: LnCAP (prostate cancer); assay: Apoptosis analysis (Annexin V FITC, flow cytometry); type: cell-based, human; conditions: 3 days
Procedure: Apoptosis was analyzed by using an Annexin V FITC Apoptosis Detection Kit (Biosource, Camarillo, Calif.), according to the manufacturer's protocol. After treatment with different small molecule compounds at various concentrations for about 3 days, cells were harvested by trypsinization, stained and immediately analyzed by flow cytometry (FACScan; Decton Dickinson, Franklin Lake, N.J.). Early apoptotic cells with exposed phosphatidylserine but intact cell membranes will bind to Annexin V-FITC, but not propidium iodide (PI). Cells in necrotic or late apoptotic stages will be labeled with both Annexin V-FITC and PI. “% apoptotic cells” or “% apoptosis” refers to the combined early and late apoptotic cells.
Flow cytometry was also used to examine apoptosis induced by molecule compounds FN1-5 and FN1-8 in LnCAP cells. […] For example, app.

[2] = test system: human renal cell carcinoma cell lines 786-O, Caki, and OMRC3; assay: Cell survival assay (crystal violet); type: cell-based; conditions: for cell killing: 50 μM
Procedure: (§1) Typically, the small molecule compounds of the present invention were dissolved in DMSO at a concentration of 30 mM. The small molecule compounds were then tested under cell culture conditions at different concentrations ranging from 0, 10, 30, 50, to 100 uM. To determine cell survival after treatment, the cells were incubated with the small molecule compounds in 6-well plates for about 3 days. After removal of the cell culture medium, 1-ml of 0.5% crystal violet solution (prepared in 20% ethanol and 20% methanol) was added to stain the cells for 5 min. Then the crystal violet solution was rinsed clean with tap water. Cell survival was estimated based on the density of crystal stained plates.
The cell-based cytotoxicity assay described herein was used to determine the effect of small molecule compounds FN1-5 and FN1-8 in the human renal cell carcinoma cell lines 786-O, Caki, and OMRC3. Viability of these cells was analyzed after treatment with 10, 30 and 50 μM FN1-5 or FN1-8.

[3] = test system: human gastric cancer cell lines NUGC3, MNK28, and AGS; assay: Cell survival assay (crystal violet); type: cell-based; conditions: for cell killing: 50 μM
Procedure: as §1
The cell-based cytotoxicity assay described herein was used to determine the effect of small molecule compounds FN1-5 and FN1-8 in the human gastric cancer cell lines NUGC3, MNK28, and AGS. Viability of these cells was analyzed after treatment with 10, 30 and 50 μM FN1-5 or FN1-8.

[4] = test system: Dvl-3, cytosolic β-catenin, Survivin in NSCLC cells H460, A549, and H838; assay: Western blot of canonical Wnt signaling components; type: cell-based, human; conditions: 30 μM, 2 days; for Dvl-3 and cytosolic beta-catenin levels (Western blot): H460, A549, H838
Procedure: (§2) Whole proteins from cell cultures with or without treatments with small molecule compounds (30 μM for 2-3 days) were prepared using standard protocols (Pierce Biotechnology, Rockford, Ill.). Protein concentrations were measured using Bio-Rad Protein Assay reagent. Whole cell lysate protein (5-20 ug) were boiled for 5 min and separated by 10-20% SDS-PAGE. Proteins were transferred to an Immobilon-P membrane (Millipore Corp., Bedford, Mass.) using semi-dry transfer cell (Bio-Rad; Benicia, Calif.). The membranes were blocked with 5% nonfat milk powder and 0.1% Tween 20 in Tris-buffer saline overnight at 4° C. and then incubated with primary antibody for 1 h at room temperature. Membranes were washed in 5% nonfat milk powder and 0.1% Tween 20 in Tris-buffer saline for three 10-min periods. Horseradish peroxidase-conjugated goat anti-rabbit or donkey anti-mouse antibodies were used as secondary antibodies. Proteins were visualized with chemiluminescence luminol reagents (Santa Cruz Bio-technology). Anti-Dvl-3, and anti-Survivin, antibodies were from Santa Cruz Biotechnology (Santa Cruz, Calif.). Anti-Caspase3 antibody was from Oncogene (Cambridge, Mass.). Anti-β-Actin antibody was from Sigrna-Aldrich Corp. (St. Louis, Mo.). Anti-β-catenin antibody was from Transduction Laboratories (Lexington, Ky.). Anti-Cytochrome c antibody was from BD Biosciences (San Diego, Calif.). For detecting alteration of β-catenin cytosolic extracts were prepared and examined as described previously in the publications from our lab.

[5] = test system: Dvl-3, cytosolic β-catenin, Survivin in colon cancer cells SW480, HT29, and CaCO2; assay: Western blot of canonical Wnt signaling components; type: cell-based, human; conditions: 30 μM, 2 days; for Dvl-3 and cytosolic beta-catenin levels (Western blot): SW480, HT29, CaCO2
Procedure: as §2

[6] = test system: Colon Cancer HT29 tumor; assay: Mouse Xenograft Model (Colon Cancer HT29); type: in vivo
Procedure: The small molecule compound FN1-8 was tested in vivo in the mouse xenograft model bearing human cancer cells. Briefly, female athymic nude mice strain NCRNU-M (5-10 weeks old, 20-25 grams in weight; Taconic, Germantown, N.Y.) was maintained in pathogen-free conditions. Three human cancer cell lines: NSCLC H460, melanoma LOX, (both showing Gli3 activation), and colon cancer HT29 (no Gli3 activation, as a negative control), were used. Ten mice were used in each group and injected s.c. with 3×10^6 cancer cells in the dorsal area in a volume of 100 μl. After inoculation, human cancer cells were allowed to grow in mice for 7 days to become visible tumor nodules. Animals were then injected with small molecule compound FN1-8 at a dose of 50 mg/kg body weight (1 mg/mouse per day). DMSO alone was used as control. The compounds and controls were adjusted in 40 ul volume for i.p. injection in the abdomens of the mice. […] Tumor size was measured every three days, and tumor volumes were calculated using width (x) and length (y) (x^2y/2, where x<y). […]
In vivo efficacy study of small molecule compound FN1-8 were also performed using a negative Mouse Xenograft Model (Colon Cancer HT29). […] Tumor size was measured with a caliper every three days. Tumor volumes were calculated using the equation x^2y (where x<y). […]

Structure (SMILES) | % of apoptotic cells ([1]; 30 μM) | % of apoptotic cells ([1]; 50 μM) | cell killing [2] | cell killing [3] | Dvl-3 and cytosolic beta-catenin levels (Western blot) [4] | Dvl-3 and cytosolic beta-catenin levels (Western blot) [5] | tumor weight ([6]; 15 mg/kg daily 2×6 days then 30 mg/kg daily 1×6 days i.p., 43 days after inoculation) | % of apoptotic cells ([1]; 10 μM) | cell killing potency compared with FN1-5 [2] | cell killing potency compared with FN1-5 [3] | Survivin level (Western blot) [4] | Survivin level (Western blot) [5] | Dvl-3 and cytosolic β-catenin levels (Western blot) ([5]; HT29 cells only) | tumor growth ([6]; 50 mg/kg i.p. daily for 2×6 days)
O=C(NCCCCCO)C1C(c2ccccc2)=NN(c2ccccc2)C1c1ccccc1 (centres unmarked) [FN1-5, N-(5-Hydroxypentyl)-1,3,5-triphenyl-4,5-dihydro-pyrazole-4-carboxyamide] | 7.7% | 16.3% | dramatic cell killing | dramatic cell killing | suppress canonical Wnt signaling | suppress canonical Wnt signaling | slightly decreased the tumor weight |  |  |  |  |  |  | 
O=C(NCCc1ccc(O)cc1)C1C(c2ccccc2)=NN(c2ccccc2)C1c1ccccc1 (centres unmarked) [FN1-8, N-(2-(4-Hydroxyphenyl)ethyl)-1,3,5-triphenyl-4,5-dihydro-pyrazole-4-carboxyamide] | 11.0% | 41.5% | dramatic cell killing | dramatic cell killing | dramatic down-regulation; also recorded: suppress canonical Wnt signaling | dramatic down-regulation; also recorded: suppress canonical Wnt signaling |  | 6.9% | more potent | more potent | down-regulated | down-regulated | no down-regulation | not affected
